One assay has as its target Cathepsin S (UniProt P25774). Kind of assay: Cathepsin enzyme inhibition assay (fluorogenic peptide substrate Z-Val-Val-Arg-AMC), Cathepsin S. The format is biochemical, human and mouse. The settings on record: enzyme 1 nM, substrate 20 μM, pH 6.5; read-out: CatS IC50. The gist of the method: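 Compounds were combined with 1 nM human or mouse enzyme, and substrate then started the reaction. The buffer was potassium phosphate (100 mM, pH 6.5) containing EDTA-Na 5 mM, Triton X-100 0.001% and […] 5 mM.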

In another assay the target is Cat L (UniProt P07711). Kind of assay: Cathepsin enzyme inhibition assay (fluorogenic peptide substrate Z-Val-Val-Arg-AMC), Cathepsin L. The settings on record: enzyme 1 nM, substrate 20 μM, pH 6.5; read-out: CatL IC50. The format is biochemical, human and mouse. The gist of the method: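 Fluorogenic cleavage of Z-Val-Val-Arg-AMC (20 μM) by 1 nM Cat L was monitored at ex 360/em 465 nm for 20 min, the linear phase. The buffer was 100 mM potassium phosphate pH 6.5 with 5 mM EDTA and DTT. IC50 values were derived by standard methods, in μM.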

The structures appear in SMILES notation. Counter-ions that a name gives are not always drawn.

By IC50 is commonly meant the concentration that inhibits the measured activity by half. As to `CC(C)(C)OC(=O)N1C[C@H](S(=O)(=O)c2ccccc2C(F)(F)F)C[C@H]1C(=O)NC(C#N)C1CC1` (stereo partly drawn) [Example 38, (2S,4R)-2-[(Cyano-cyclopropyl-methyl)-carbamoyl]-4-(2-trifluoromethyl-benzenesulfonyl)-pyrrolidine-1-carboxylic acid tert-butyl ester], the IC50 on Cathepsin S was 5 nM; at Cat L, at least 25000 nM.

In the case of `N#CC1(NC(=O)[C@@H]2C[C@@H](S(=O)(=O)c3ccc(OCC(F)(F)F)cc3Cl)CN2C(=O)C2(c3ccc(Cl)c(Cl)c3)CC2)CC1` [Example 239, (2S,4R)-4-[2-Chloro-4-(2,2,2-trifluoro-ethoxy)-benzenesulfonyl]-1-[1-(3,4-dichloro-phenyl)-cyclopropanecarbonyl]-pyrrolidine-2-carboxylic acid (1-cyano-cyclopropyl)-amide], the IC50 on Cathepsin S stood at 0.08 nM; on Cat L, 84 nM.

Consider `N#CCNC(=O)[C@@H]1C[C@@H](S(=O)(=O)c2ccccc2Cl)CN1C1CCOCC1` [Example 64, (2S,4R)-4-(2-Chloro-benzenesulfonyl)-1-(tetrahydro-pyran-4-yl)-pyrrolidine-2-carboxylic acid cyanomethyl-amide], for which the IC50 was 109 nM on Cathepsin S and at least 25000 nM at Cat L.

For `CC1(C(=O)N2C[C@H](S(=O)(=O)c3ccc(C4CC4)cc3C(F)(F)F)C[C@H]2C(=O)NC2(C#N)CC2)CC1` [Example 271, (2S,4R)-4-(4-Cyclopropyl-2-trifluoromethyl-benzenesulfonyl)-1-(1-methyl-cyclopropanecarbonyl)-pyrrolidine-2-carboxylic acid (1-cyano-cyclopropyl)-amide], the IC50 at Cathepsin S is 1.75 nM; on Cat L, 85600 nM.

In the case of `N#CC1(NC(=O)[C@@H]2C[C@@H](S(=O)(=O)c3ccc(OCC(F)(F)F)cc3Cl)CN2C(=O)C2(c3ccc(Cl)cc3)CCCC2)CC1` [Example 302, (2S,4R)-1-[1-(4-Chloro-phenyl)-cyclopentanecarbonyl]-4-[2-chloro-4-(2,2,2-trifluoro-ethoxy)-benzenesulfonyl]-pyrrolidine-2-carboxylic acid (1-cyano-cyclopropyl)-amide], the IC50 came out at 0.03 nM at Cathepsin S and 575 nM at Cat L.

In the case of `Cc1cc(N2C[C@H](S(=O)(=O)c3ccccc3C(F)(F)F)C[C@H]2C(=O)NC2(C#N)CC2)n(-c2ccc(F)cc2)n1` [Example 195, (2S,4R)-1-[2-(4-Fluoro-phenyl)-5-methyl-2H-pyrazol-3-yl]-4-(2-trifluoromethyl-benzenesulfonyl)-pyrrolidine-2-carboxylic acid (1-cyano-cyclopropyl)-amide], the IC50 at Cathepsin S was 3.6 nM; on Cat L it was at least 25000 nM.

As for `N#CC1(NC(=O)[C@@H]2C[C@@H](S(=O)(=O)c3ccc(Br)cc3C(F)(F)F)CN2)CC1` [Example 18, (2S,4R)-4-(4-Bromo-2-trifluoromethyl-benzenesulfonyl)-pyrrolidine-2-carboxylic acid (1-cyano-cyclopropyl)-amide hydrochloride], the IC50 on Cathepsin S was determined as 3.3 nM; at Cat L, 30300 nM.

In the case of `N#CC1(NC(=O)[C@@H]2C[C@@H](S(=O)(=O)c3ccc(OCC(F)(F)F)cc3Cl)CN2C(=O)C2CC2c2ccccc2)CC1` (stereo partly shown) [Example 246], the IC50 worked out at 0.245 nM on Cathepsin S and 185 nM at Cat L.

Turning to `CC(C)CC(=O)N1C[C@H](S(=O)(=O)c2ccccc2Cl)C[C@H]1C(=O)NC1(C#N)CC1` [Example 220, (2S,4R)-4-(2-Chloro-benzenesulfonyl)-1-(3-methyl-butyryl)-pyrrolidine-2-carboxylic acid (1-cyano-cyclopropyl)-amide], the results for the IC50 on Cathepsin S and at Cat L were 0.4 nM and 17800 nM, respectively.

Consider `N#CC1(NC(=O)[C@@H]2C[C@@H](S(=O)(=O)CC3CC3)CN2C(=O)C2(c3ccc(Cl)cc3)CC2)CC1` [Example 424, (2S,4R)-1-[1-(4-Chloro-phenyl)-cyclopropanecarbonyl]-4-cyclopropylmethanesulfonyl-pyrrolidine-2-carboxylic acid (1-cyano-cyclopropyl)-amide], for which the IC50 at Cathepsin S was 410 nM; on Cat L, at least 25000 nM.

Consider `N#CCNC(=O)[C@@H]1C[C@@H](S(=O)(=O)c2ccccc2Cl)CN1C1COC1` [Example 63, (2S,4R)-4-(2-Chloro-benzenesulfonyl)-1-oxetan-3-yl-pyrrolidine-2-carboxylic acid cyanomethyl-amide], for which the IC50 is 100 nM at Cathepsin S and at least 25000 nM on Cat L.

On to `Cc1cc(N2C[C@H](S(C)(=O)=O)C[C@H]2C(=O)NC2(C#N)CC2)n(-c2ccnc(Cl)c2)n1` [Example 463, (2S,4R)-1-[2-(2-Chloro-pyridin-4-yl)-5-methyl-2H-pyrazol-3-yl]-4-methanesulfonyl-pyrrolidine-2-carboxylic acid (1-cyano-cyclopropyl)-amide], for which the IC50 on Cathepsin S is 5130 nM; on Cat L it was over 25000 nM.

Take `N#CC1(NC(=O)[C@@H]2C[C@@H](S(=O)(=O)c3ccccc3Cl)CN2C(=O)C2(c3ccc(Br)cc3)CC2)CC1` [Example 426, (2S,4R)-1-(1-(4-bromophenyl)cyclopropanecarbonyl)-4-(2-chlorophenylsulfonyl)-N-(1-cyanocyclopropyl)pyrrolidine-2-carboxamide]: the IC50 is 0.47 nM at Cathepsin S and 45 nM at Cat L.

Turning to `N#CC1(NC(=O)[C@@H]2C[C@@H](S(=O)(=O)c3ccc(N4CCCC4=O)cc3C(F)(F)F)CN2)CC1` [Example 26, (2S,4R)-4-[4-(2-Oxo-pyrrolidin-1-yl)-2-trifluoromethyl-benzenesulfonyl]-pyrrolidine-2-carboxylic acid (1-cyano-cyclopropyl)-amide hydrochloride], the concentration for half-maximal inhibition (IC50) on Cathepsin S is 2.8 nM; on Cat L, at least 25000 nM.

As for `N#CC1(NC(=O)[C@@H]2C[C@@H](S(=O)(=O)c3ccccc3Cl)CN2C(=O)C2(c3ccccc3)CC2)CC1` [Example 216, (2S,4R)-4-(2-Chloro-benzenesulfonyl)-1-(1-phenyl-cyclopropanecarbonyl)-pyrrolidine-2-carboxylic acid (1-cyano-cyclopropyl)-amide], the values for the IC50 at Cathepsin S and at Cat L were 0.2 nM and 285 nM, respectively.

Take `N#CC1(NC(=O)[C@@H]2C[C@@H](S(=O)(=O)c3ccccc3Cl)CN2C(=O)[C@H](N)c2ccc(Cl)cc2)CC1` [Example 417, (2S,4R)-1-[(R)-2-Amino-2-(4-chloro-phenyl)-acetyl]-4-(2-chloro-benzenesulfonyl)-pyrrolidine-2-carboxylic acid (1-cyano-cyclopropyl)-amide]: the results for the IC50 on Cathepsin S and at Cat L were 2.45 nM and 55.5 nM, respectively.

For the compound `COC(=O)c1ccc(C(=O)N2C[C@H](S(=O)(=O)c3ccccc3C(F)(F)F)C[C@H]2C(=O)NC2(C#N)CC2)cc1` [Example 118, 4-[(2S,4R)-2-(1-Cyano-cyclopropylcarbamoyl)-4-(2-trifluoromethyl-benzenesulfonyl)-pyrrolidine-1-carbonyl]-benzoic acid methyl ester], the IC50 at Cathepsin S was 0.9 nM; on Cat L, at least 25000 nM.

Regarding `Cc1cc(N2C[C@H](S(C)(=O)=O)C[C@H]2C(=O)NC2(C#N)CC2)n(Cc2ccccc2)n1` [Example 449, (2S,4R)-1-(2-Benzyl-5-methyl-2H-pyrazol-3-yl)-4-methanesulfonyl-pyrrolidine-2-carboxylic Acid (1-cyano-cyclopropyl)-amide], the IC50 at Cathepsin S is 10500 nM; on Cat L it was at least 25000 nM.

Consider `Cc1cc(N2C[C@H](S(=O)(=O)c3ccccc3C(F)(F)F)C[C@H]2C(=O)NC2(C#N)CC2)n(-c2ccc(C(F)(F)F)cc2)n1` [Example 232, (2S,4R)-1-[5-Methyl-2-(4-trifluoromethyl-phenyl)-2H-pyrazol-3-yl]-4-(2-trifluoromethyl-benzenesulfonyl)-pyrrolidine-2-carboxylic acid (1-cyano-cyclopropyl)-amide], for which the IC50 at Cathepsin S amounted to 0.21 nM; on Cat L it was 12800 nM.

For the compound `N#CC1(NC(=O)[C@@H]2C[C@@H](S(=O)(=O)c3ccc(N4CCC(C(F)(F)F)CC4)cc3Cl)CN2C(=O)C2(C(F)(F)F)CC2)CC1` [Example 156, (2S,4R)-4-[2-Chloro-4-(4-trifluoromethyl-piperidin-1-yl)-benzenesulfonyl]-1-(1-trifluoromethyl-cyclopropanecarbonyl)-pyrrolidine-2-carboxylic acid (1-cyano-cyclopropyl)-amide], the figures for the IC50 on Cathepsin S and at Cat L were 0.4 nM and 4400 nM, respectively.

In the case of `CC(C)(C)OC(=O)N1C[C@H](S(=O)(=O)c2ccc(N3CCCCC3)cc2Cl)C[C@H]1C(=O)NC1(C#N)CC1` [Example 121, (2S,4R)-4-(2-Chloro-4-piperidin-1-yl-benzenesulfonyl)-2-(1-cyano-cyclopropylcarbamoyl)-pyrrolidine-1-carboxylic acid tert.-butyl ester], the IC50 is 4.1 nM at Cathepsin S and 23700 nM at Cat L.

`CCN1CCN(c2ccc(S(=O)(=O)[C@H]3CN[C@H](C(=O)NC4(C#N)CC4)C3)c(Cl)c2)CC1` [Example 140, (2S,4R)-4-[2-Chloro-4-(4-ethyl-piperazin-1-yl)-benzenesulfonyl]-pyrrolidine-2-carboxylic acid (1-cyano-cyclopropyl)-amide formiate]: the results for the IC50 at Cathepsin S and on Cat L were 5.9 nM and 24500 nM, respectively.

Regarding `N#CC1(NC(=O)[C@@H]2C[C@@H](S(=O)(=O)c3ccccc3)CN2C(=O)C2CCOCC2)CC1` [Example 74, (2S,4R)-4-Benzenesulfonyl-1-(tetrahydro-pyran-4-carbonyl)-pyrrolidine-2-carboxylic acid (1-cyano-cyclopropyl)-amide], the values for the IC50 on Cathepsin S and on Cat L were 6.6 nM and at least 25000 nM, respectively.

The record behind these values is patent publication US8163793B2, “Proline derivatives” (Hoffman-La Roche Inc., priority 2009, dated 2012).
